We go through nine compounds from patent publication US12202829B2, “Heterocyclic compound” (FIMECS, Inc., priority 2018, dated 2025).

Structures can show the parent of a compound that is named as a salt.

The target of this assay is T1, human XIAP_BIR3 domain purified protein (Homo sapiens, UniProt P98170).
T1 construct: purchased R & D
Nature of the assay: XIAP binding inhibitory activity, HTRF method with b-Smac ligand. The note with it: for inhibition at 3 µM: test compound 3 μM, first symbol of the cell, read-out: XIAP binding inhibition rate when the concentration of the test compound is 3 μM; for IC50: second symbol of the cell, read-out: XIAP binding 50% inhibitory concentration (IC50 value). As for the experimental part:
Human XIAP binding inhibitory activity were measured by the Homogeneous Time Resolved Fluorescence (HTRF) method with using commercially available human XIAP_BIR3 domain purified protein (R & D) and as a ligand a Smac N-terminal peptide (AVPIAQK (SEQ ID NO: 1)) (hereinafter referred to as “b-Smac”; Peptide Research Laboratories, Inc.) biotinylated at the C-terminus according to a conventional method.
The HTRF method will be described in detail below. A test compound diluted with a reaction buffer was added to a 384-well white shallow bottom plate (Greiner 784076) at 1 μL/well and flash centrifuged for 30 seconds. Subsequently, human XIAP_BIR3 domain purified protein was diluted with the reaction buffer (25 mM HEPES Buffer containing 100 mM NaCl, 0.1% BSA, and 0.1% triton X-100, pH 7.5) to obtain a 90 nM sample diluent, and the resultant sample diluent was added to the above-mentioned white superficial plate at 4.5 μL/well and flash centrifuged for 30 seconds. Subsequently, b-Smac diluted to 90 nM with the reaction buffer was added to the above-mentioned white superficial plat at 4.5 μL/well and flash centrifuged for 30 seconds. A mixed solution of Anti-6 HIS-Cryptate (Eu3+Cryptate-conjugated mouse monoclonal antibody anti-6 Histidine; cisbio) and Streptavidin-XL^ent! (Highgrade XL665-conjugated streptavidin; cisbio) both diluted 100-fold with HTRF detection buffer (cisbio) at a volume ratio of 1:1 was added to the above white superficial plate at 10 μL/well. After flash centrifuging the white shallow bottom plate for 30 seconds, the white shallow bottom plate was left at room temperature for 4 hours or more in the dark. The white superficial plate after being left was subjected to fluorescence intensity measurement (excitation wavelength: 320 nm, fluorescence wavelength: 665 nm and 615 nm) by EnVision (Perkin Elmer).
The binding inhibition rate (%) was calculated based on the HTRF ratio in the presence of the test compound to the HTRF ratio in the absence of the test compound (fluorescence intensity at 665 nm/fluorescence intensity at 615 nm).

T1 sequence (P98170 252-356 limits assumed): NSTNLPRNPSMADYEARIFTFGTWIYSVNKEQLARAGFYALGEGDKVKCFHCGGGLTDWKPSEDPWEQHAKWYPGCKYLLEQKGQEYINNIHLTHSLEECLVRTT

For the compound `CN[C@@H](C)C(=O)N[C@H](C(=O)N1CCN(C(=O)c2cc3ccc(OC)cc3n2C)C[C@H]1C)C1CCCCC1` [Example 24, (S)—N—((S)-1-cyclohexyl-2-((R)-4-(6-methoxy-1-methyl-1H-indole-2-carbonyl)-2-methylpiperazin-1-yl)-2-oxoethyl)-2-(methylamino)propanamide Hydrochloride], the inhibition at 3 µM was above 75%.

On to `CN[C@@H](C)C(=O)N[C@H](C(=O)N1CCN(C(=O)c2cc3c(OCCOCCOCCOCCO)c(F)c(F)cc3n2C)CC1)C1CCCCC1` [Example 68, (S)—N—((S)-1-Cyclohexyl-2-(4-(5,6-difluoro-4-(2-(2-(2-(2-hydroxyethoxy)ethoxy)ethoxy)ethoxy)-1-methyl-1H-indole-2-carbonyl)piperazin-1-yl)-2-oxoethyl)-2-(methylamino)propanamide], for which the IC50 is 0.3 to 3 µM. In the case of `CN[C@@H](C)C(=O)N[C@H](C(=O)N1CCN(C(=O)c2ccc3c(c2)c(F)c(C)n3CCOCCOCCO)CC1)C1CCCCC1` [Example 71, (S)—N—((S)-1-Cyclohexyl-2-(4-(3-fluoro-1-(2-(2-(2-hydroxyethoxy)ethoxy)ethyl)-2-methyl-1H-indole-5-carbonyl)piperazin-1-yl)-2-oxoethyl)-2-(methylamino)propanamide], the inhibition at 3 µM is above 75%.

With `CN[C@@H](C)C(=O)N[C@H](C(=O)N1CCN(C(=O)c2cc3cc(F)ccc3n2C)C[C@H]1C)C1CCCCC1` [Example 58, (S)—N—((S)-1-Cyclohexyl-2-((R)-4-(5-fluoro-1-methyl-1H-indole-2-carbonyl)-2-methylpiperazin-1-yl)-2-oxoethyl)-2-(methylamino)propanamide Trifluoroacetate], the IC50 was 0.3 to 3 µM. For `CN[C@@H](C)C(=O)N[C@@H](C(=O)N1CCN(C(=O)c2cc3cc(F)c(F)cc3n2CCOCCOCc2ccccc2)CC1)C1CCCCC1` [Example 46, (S)—N—((R)-2-(4-(1-(2-(2-(Benzyloxy)ethoxy)ethyl)-5,6-difluoro-1H-indole-2-carbonyl)piperazin-1-yl)-1-cyclohexyl-2-oxoethyl)-2-(methylamino)propanamide Hydrochloride], the IC50 lay within 3 to 30 µM. Take `CN[C@@H](C)C(=O)N[C@H](C(=O)N1CCN(C(=O)c2cc3cc(F)c(F)cc3n2CCOCCOCc2ccccc2)CC1)C1CCCCC1` [Example 44, (S)—N—((S)-2-(4-(1-(2-(2-(Benzyloxy)ethoxy)ethyl)-5,6-difluoro-1H-indole-2-carbonyl)piperazin-1-yl)-1-cyclohexyl-2-oxoethyl)-2-(methylamino)propanamide]: the IC50 is 3 to 30 µM. With `CN[C@@H](C)C(=O)N[C@H](C(=O)N1CCN(C(=O)c2ccc3cnn(C)c3c2)CC1)C1CCCCC1` [Example 17, (S)-N-((S)-1-cyclohexyl-2-(4-(1-methyl-1H-indazole-6-carbonyl)piperazin-1-yl)-2-oxoethyl)-2-(methylamino)propanamide], the inhibition at 3 µM was above 25%. For the compound `C[C@@H]1CN(CC(=O)N2CCN(C(=O)c3cc4cc(F)c(F)cc4n3C)C[C@H]2C)[C@@H](COCCOCCOCCO)CN1` [Example 64, 1-((R)-4-(5,6-Difluoro-1-methyl-1H-indole-2-carbonyl)-2-methylpiperazin-1-yl)-2-((2R,5R)-2-(2-(2-(2-hydroxyethoxy)ethoxy)ethoxymethyl)-5-methylpiperazin-1-yl)ethan-1-one], the IC50 lay within 3 to 30 µM. On to `CN[C@@H](C)C(=O)N[C@H](C(=O)N1CCN(C(=O)c2cc3cc(F)ccc3n2CC(=O)NCCOCCOCCNC(=O)C[C@@H]2N=C(c3ccc(Cl)cc3)c3c(sc(C)c3C)-n3c(C)nnc32)CC1)C1CCCCC1` [Example 76, (S)-N-((S)-2-(4-(1-(14-((S)-4-(4-chlorophenyl)-2,3,9-trimethyl-6H-thieno[3,2-f][1,2,4]triazolo[4,3-a][1,4]diazepin-6-yl)-2,13-dioxo-6,9-dioxa-3,12-diazatetradecyl)-5-fluoro-1H-indole-2-carbonyl)piperazin-1-yl)-1-cyclohexyl-2-oxoethyl)-2-(methylamino)propanamide], for which the inhibition at 3 µM is above 25%.
